The record followed here is paper PMC4770306, “Structure-Based Identification of Inhibitory Fragments Targeting the p300/CBP-Associated Factor Bromodomain” (Journal of Medicinal Chemistry, 2016).

The structures appear in SMILES notation.

Common to all, as to format: binding
The target of one test is T1, PCAF bromodomain (Homo sapiens, UniProt Q92831).
T1 construct: The PCAF bromodomain (aa 715–831) containing an N-terminal His6-tag was recombinantly expressed in Escherichia coli Rosetta; His6 (N, cleaved yes); made in house; host or cells: Escherichia coli Rosetta
T1 sequence (Q92831 715-831): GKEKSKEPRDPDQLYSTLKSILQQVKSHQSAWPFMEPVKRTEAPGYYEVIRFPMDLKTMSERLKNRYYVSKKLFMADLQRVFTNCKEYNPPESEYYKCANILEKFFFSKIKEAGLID
Nature of the test: Thermal stability shift assay (DSF), PCAF bromodomain. The following applies: compound 1 mM, protein 2 μM, average of triplicates.

Another test addresses T2, BAZ1BA (Homo sapiens, UniProt Q9UIG0).
T2 sequence (Q9UIG0 1-1483): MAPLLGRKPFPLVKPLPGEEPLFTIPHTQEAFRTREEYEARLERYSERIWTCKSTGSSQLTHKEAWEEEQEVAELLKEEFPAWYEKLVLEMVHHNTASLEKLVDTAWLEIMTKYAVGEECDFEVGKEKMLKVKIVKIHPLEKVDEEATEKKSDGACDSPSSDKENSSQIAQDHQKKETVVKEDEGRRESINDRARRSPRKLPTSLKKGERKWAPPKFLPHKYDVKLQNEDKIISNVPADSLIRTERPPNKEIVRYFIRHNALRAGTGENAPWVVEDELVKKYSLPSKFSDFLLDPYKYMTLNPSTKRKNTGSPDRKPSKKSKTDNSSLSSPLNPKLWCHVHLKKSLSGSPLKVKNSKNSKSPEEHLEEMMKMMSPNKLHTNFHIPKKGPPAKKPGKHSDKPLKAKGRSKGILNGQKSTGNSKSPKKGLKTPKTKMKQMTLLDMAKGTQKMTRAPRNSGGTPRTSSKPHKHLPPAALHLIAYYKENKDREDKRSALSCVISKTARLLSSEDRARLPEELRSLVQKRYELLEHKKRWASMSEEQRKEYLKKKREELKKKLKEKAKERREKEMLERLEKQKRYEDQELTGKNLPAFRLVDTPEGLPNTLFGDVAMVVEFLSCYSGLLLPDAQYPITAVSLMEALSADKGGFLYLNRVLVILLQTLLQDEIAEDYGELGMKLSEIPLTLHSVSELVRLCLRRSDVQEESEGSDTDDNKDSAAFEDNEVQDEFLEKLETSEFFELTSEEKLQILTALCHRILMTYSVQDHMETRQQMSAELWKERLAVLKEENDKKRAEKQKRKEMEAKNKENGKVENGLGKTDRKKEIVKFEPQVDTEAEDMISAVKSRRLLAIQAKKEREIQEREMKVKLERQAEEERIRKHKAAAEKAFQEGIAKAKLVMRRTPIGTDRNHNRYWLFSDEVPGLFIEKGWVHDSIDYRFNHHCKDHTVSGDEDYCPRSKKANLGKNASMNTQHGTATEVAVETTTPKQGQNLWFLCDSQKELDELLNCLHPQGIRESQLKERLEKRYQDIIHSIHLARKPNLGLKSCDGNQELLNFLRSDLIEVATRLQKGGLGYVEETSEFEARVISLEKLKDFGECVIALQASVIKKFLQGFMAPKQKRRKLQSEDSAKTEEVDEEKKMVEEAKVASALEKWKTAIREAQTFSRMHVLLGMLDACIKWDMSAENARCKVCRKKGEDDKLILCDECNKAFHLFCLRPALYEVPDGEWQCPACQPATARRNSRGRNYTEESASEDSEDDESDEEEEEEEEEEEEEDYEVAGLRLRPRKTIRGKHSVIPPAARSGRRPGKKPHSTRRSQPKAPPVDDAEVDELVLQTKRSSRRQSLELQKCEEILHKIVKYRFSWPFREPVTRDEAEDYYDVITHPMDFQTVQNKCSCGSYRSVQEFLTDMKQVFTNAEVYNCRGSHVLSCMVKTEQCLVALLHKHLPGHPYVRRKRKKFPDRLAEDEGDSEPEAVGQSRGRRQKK
The test is described as follows: Alphascreen assay BAZ1BA.

A further test deals with T3, BRPF3A (Homo sapiens, UniProt Q9ULD4).
T3 sequence (Q9ULD4 1-1205): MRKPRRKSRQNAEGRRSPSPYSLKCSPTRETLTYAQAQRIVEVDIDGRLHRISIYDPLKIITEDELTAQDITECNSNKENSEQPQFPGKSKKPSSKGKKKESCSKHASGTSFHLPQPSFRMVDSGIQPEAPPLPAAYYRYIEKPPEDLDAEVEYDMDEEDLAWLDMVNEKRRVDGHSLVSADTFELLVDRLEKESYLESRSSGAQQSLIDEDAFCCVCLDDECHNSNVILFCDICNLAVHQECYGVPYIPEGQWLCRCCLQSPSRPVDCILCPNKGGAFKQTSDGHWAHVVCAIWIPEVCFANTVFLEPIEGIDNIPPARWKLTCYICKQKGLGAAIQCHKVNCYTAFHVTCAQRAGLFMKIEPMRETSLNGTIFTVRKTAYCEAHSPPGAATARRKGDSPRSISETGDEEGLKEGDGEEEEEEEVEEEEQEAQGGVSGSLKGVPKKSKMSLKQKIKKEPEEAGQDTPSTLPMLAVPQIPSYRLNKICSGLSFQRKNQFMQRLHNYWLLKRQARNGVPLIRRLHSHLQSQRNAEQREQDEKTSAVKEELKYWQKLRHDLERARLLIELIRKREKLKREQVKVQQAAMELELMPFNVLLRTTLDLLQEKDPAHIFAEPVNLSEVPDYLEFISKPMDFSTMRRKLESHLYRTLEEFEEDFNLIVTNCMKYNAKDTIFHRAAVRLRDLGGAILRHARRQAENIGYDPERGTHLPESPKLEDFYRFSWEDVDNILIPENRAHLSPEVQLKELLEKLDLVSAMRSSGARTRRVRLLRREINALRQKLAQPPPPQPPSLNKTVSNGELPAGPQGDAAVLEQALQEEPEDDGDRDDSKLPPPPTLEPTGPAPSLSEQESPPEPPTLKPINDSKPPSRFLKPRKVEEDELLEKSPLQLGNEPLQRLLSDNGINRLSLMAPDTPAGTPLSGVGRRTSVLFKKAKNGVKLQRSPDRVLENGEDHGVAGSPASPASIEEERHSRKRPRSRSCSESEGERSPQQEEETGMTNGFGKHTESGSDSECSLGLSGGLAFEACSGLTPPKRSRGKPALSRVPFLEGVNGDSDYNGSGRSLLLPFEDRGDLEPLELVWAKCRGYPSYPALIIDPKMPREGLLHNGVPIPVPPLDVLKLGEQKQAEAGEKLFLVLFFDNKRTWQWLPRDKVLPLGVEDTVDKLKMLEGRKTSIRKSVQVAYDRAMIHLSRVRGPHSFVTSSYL
Nature of the test: Alphascreen assay BRPF3A.

Consider `CC(=O)Nc1ccc2c(C)cc(=O)n(C)c2c1` [compound 12, N-(1,4-dimethyl-2-oxo-1,2-dihydroquinolin-7-yl)acetamide], for which, at PCAF bromodomain, the “ΔTm (°C) at 1 mM (± SEM)” value was 2.6–2.9 °C. The inhibition at 25 µM came out at 0.7% on BAZ1BA and 46.8% at BRPF3A.
For `Cc1cc(=O)n(C)c2cc(NS(C)(=O)=O)ccc12` [compound 13, N-(1,4-dimethyl-2-oxo-1,2-dihydroquinolin-7-yl)methanesulfonam], the results for the inhibition at 25 µM at BAZ1BA and on BRPF3A were -0.2% and 28.7%, respectively.

The term inhibition denotes the change of the read-out against control, counted positive when it falls.
